In ChEMBL document CHEMBL4346757, “Synthesis and biological evaluation of 7-methoxy-1-(3,4,5-trimethoxyphenyl)-4,5-dihydro-2H-benzo[e]indazoles as new colchicine site inhibitors” (Bioorg Med Chem Lett, 2019):

Experiments:
OVCAR-8 = assay: Growth inhibition of human OVCAR8 cells assessed as cell growth at 1 uM after 48 hrs by SRB assay relative to control; assay type: functional; conditions: OVCAR-8, 48 h, read-out: Activity
NCI-H522 = assay: Growth inhibition of human NCI-H522 cells assessed as cell growth at 10 uM after 48 hrs by SRB assay relative to control; assay type: functional; conditions: NCI-H522, 48 h, read-out: Activity
IGROV-1 = assay: Growth inhibition of human IGROV1 cells assessed as cell growth at 1 uM after 48 hrs by SRB assay relative to control; assay type: functional; conditions: IGROV-1, 48 h, read-out: Activity
T47D = assay: Growth inhibition of human T47D cells assessed as cell growth at 10 uM after 48 hrs by SRB assay relative to control; assay type: functional; conditions: read-out: Activity
SF-295 = assay: Cytotoxicity against human SF295 cells assessed as growth inhibition after 48 hrs by SRB assay; assay type: functional; conditions: SF-295, 48 h
SR = assay: Cytotoxicity against human SR cells assessed as growth inhibition after 48 hrs by SRB assay; assay type: functional
M14 = assay: Cytotoxicity against human M14 cells assessed as growth inhibition after 48 hrs by SRB assay; assay type: functional; conditions: M14, 48 h
SNB-75 = assay: Growth inhibition of human SNB75 cells assessed as cell growth at 0.01 uM after 48 hrs by SRB assay relative to control; assay type: functional; conditions: SNB-75, 48 h, read-out: Activity
NCI-H23 = assay: Cytotoxicity against human NCI-H23 cells assessed as growth inhibition after 48 hrs by SRB assay; assay type: functional; conditions: NCI-H23, 48 h
ACHN [1] = assay: Growth inhibition of human ACHN cells assessed as cell growth at 1 uM after 48 hrs by SRB assay relative to control; assay type: functional; conditions: read-out: Activity
Malme-3M = assay: Cytotoxicity against human MALME-3M cells assessed as growth inhibition after 48 hrs by SRB assay; assay type: functional
CAKI-1 = assay: Growth inhibition of human Caki1 cells assessed as cell growth at 100 uM after 48 hrs by SRB assay relative to control; assay type: functional; conditions: CAKI-1, 48 h, read-out: Activity
SK-MEL-28 = assay: Growth inhibition of human SK-MEL-28 cells assessed as cell growth at 0.1 uM after 48 hrs by SRB assay relative to control; assay type: functional; conditions: SK-MEL-28, 48 h, read-out: Activity
COLO 205 [2] = assay: Cytotoxicity against human COLO205 cells assessed as growth inhibition after 48 hrs by SRB assay; assay type: functional; conditions: COLO 205, 48 h
HOP-92 = assay: Growth inhibition of human HOP92 cells assessed as cell growth at 10 uM after 48 hrs by SRB assay relative to control; assay type: functional; conditions: HOP-92, 48 h, read-out: Activity
MDA-MB-468 = assay: Cytotoxicity against human MDA-MB-468 cells assessed as growth inhibition after 48 hrs by SRB assay; assay type: functional; conditions: MDA-MB-468, 48 h
COLO 205 [3] = assay: Antiproliferative activity against human COLO205 cells assessed as reduction in cell viability by MTT assay; assay type: functional, cell-based
SN12C = assay: Growth inhibition of human SN12C cells assessed as cell growth at 1 uM after 48 hrs by SRB assay relative to control; assay type: functional; conditions: read-out: Activity
HCC 2998 = assay: Growth inhibition of human HCC2998 cells assessed as cell growth at 10 uM after 48 hrs by SRB assay relative to control; assay type: functional; conditions: HCC 2998, 48 h, read-out: Activity
786-0 = assay: Growth inhibition of human 786-0 cells assessed as cell growth at 0.1 uM after 48 hrs by SRB assay relative to control; assay type: functional; conditions: 786-0, 48 h, read-out: Activity
K562 = assay: Growth inhibition of human K562 cells assessed as cell growth at 1 uM after 48 hrs by SRB assay relative to control; assay type: functional; conditions: K562, 48 h, read-out: Activity
SW-620 [4] = assay: Growth inhibition of human SW620 cells assessed as cell growth at 1 uM after 48 hrs by SRB assay relative to control; assay type: functional; conditions: SW-620, 48 h, read-out: Activity
SNB-19 = assay: Growth inhibition of human SNB19 cells assessed as cell growth at 10 uM after 48 hrs by SRB assay relative to control; assay type: functional; conditions: SNB-19, 48 h, read-out: Activity
SW-620 [5] = assay: Growth inhibition of human SW620 cells assessed as cell growth at 10 uM after 48 hrs by SRB assay relative to control; assay type: functional; conditions: SW-620, 48 h, read-out: Activity
Tubulin = Tubulin (Bos taurus, UniProt Q6B856+Q862L2+Q862F3); assay: Inhibition of bovine brain tubulin polymerization measured every 1 min for 60 mins by turbidimetry based microplate reader analysis
EKVX = assay: Growth inhibition of human EKVX cells assessed as cell growth at 1 uM after 48 hrs by SRB assay relative to control; assay type: functional; conditions: read-out: Activity
NCI-H322M = assay: Growth inhibition of human NCI-H322M cells assessed as cell growth at 0.01 uM after 48 hrs by SRB assay relative to control; assay type: functional; conditions: read-out: Activity
ACHN [6] = assay: Growth inhibition of human ACHN cells assessed as cell growth at 10 uM after 48 hrs by SRB assay relative to control; assay type: functional; conditions: read-out: Activity
UACC-62 = assay: Cytotoxicity against human UACC62 cells assessed as growth inhibition after 48 hrs by SRB assay; assay type: functional; conditions: UACC-62, 48 h
LOX IMVI = assay: Growth inhibition of human LOXIMVI cells assessed as cell growth at 100 uM after 48 hrs by SRB assay relative to control; assay type: functional; conditions: read-out: Activity
[7] = read-out: LC50 (the source's name)
[8] = read-out: pLC50 (the source's name) (converted)

Molecule `COc1ccc2c(c1)CCc1n[nH]c(-c3cc(OC)c(OC)c(OC)c3)c1-2` has a growth at 1 µM (OVCAR-8) of 10%, a growth at 10 µM (NCI-H522) of -17% and a growth at 1 µM (IGROV-1) of 26%. For the same molecule, the growth at 10 µM (T47D) was 35%, the GI50 (SF-295; read-out: GI50) was under 0.01 µM and the CC50 (SF-295; [7]) was 64.5 µM. The TGI (SF-295; read-out: TGI) was 3.21 µM, the GI50 (SF-295; read-out: pGI50 (converted)) was under 0.01 µM and the CC50 (SF-295; [8]) was 64.6 µM. It also gave a TGI (SF-295; read-out: pTGI (converted)) of 3.24 µM, a GI50 (SR; read-out: GI50) of under 0.01 µM and a CC50 (SR; [7]) of over 100 µM. For the same molecule, the TGI (SR; read-out: TGI) was 22.9 µM, the GI50 (SR; read-out: pGI50 (converted)) was under 0.01 µM and the CC50 (SR; [8]) was over 100 µM. It also gave a TGI (SR; read-out: pTGI (converted)) of 22.9 µM, a GI50 (M14; read-out: GI50) of under 0.01 µM and an LC50 (M14; read-out: LC50) of 58.7 µM. It also gave a TGI (M14; read-out: TGI) of 10.9 µM, a GI50 (M14; read-out: pGI50 (converted)) of under 0.01 µM and an LC50 (M14; read-out: pLC50 (converted)) of 58.9 µM. It also gave a TGI (M14; read-out: pTGI (converted)) of 11 µM, a growth at 0.01 µM (SNB-75) of 12% and a GI50 (NCI-H23; read-out: GI50) of under 0.01 µM. For the same molecule, the CC50 (NCI-H23; [7]) was over 100 µM, the TGI (NCI-H23; read-out: TGI) was 3.53 µM and the GI50 (NCI-H23; read-out: pGI50 (converted)) was under 0.01 µM. The CC50 (NCI-H23; [8]) was over 100 µM, the TGI (NCI-H23; read-out: pTGI (converted)) was 3.55 µM and the growth at 1 µM (ACHN [1]) was 25%. It also gave a GI50 (Malme-3M; read-out: GI50) of under 0.01 µM, a CC50 (Malme-3M; [7]) of over 100 µM and a TGI (Malme-3M; read-out: TGI) of 33.9 µM. It also gave a GI50 (Malme-3M; read-out: pGI50 (converted)) of under 0.01 µM, a CC50 (Malme-3M; [8]) of over 100 µM and a TGI (Malme-3M; read-out: pTGI (converted)) of 33.9 µM. It also gave a growth at 100 µM (CAKI-1) of -20%, a growth at 0.1 µM (SK-MEL-28) of 60% and a GI50 (COLO 205 [2]; read-out: GI50) of under 0.01 µM. For the same molecule, the CC50 (COLO 205 [2]; [7]) was 0.249 µM, the TGI (COLO 205 [2]; read-out: TGI) was under 0.01 µM and the GI50 (COLO 205 [2]; read-out: pGI50 (converted)) was under 0.01 µM. The CC50 (COLO 205 [2]; [8]) was 0.251 µM, the TGI (COLO 205 [2]; read-out: pTGI) was under 0.01 µM and the growth at 10 µM (HOP-92) was 42%. For the same molecule, the GI50 (MDA-MB-468; read-out: GI50) was under 0.01 µM, the LC50 (concentration killing 50% of cells) (MDA-MB-468; read-out: LC50) was over 100 µM and the TGI (MDA-MB-468; read-out: TGI) was under 0.01 µM. It also gave a GI50 (MDA-MB-468; read-out: pGI50 (converted)) of under 0.01 µM, an LC50 (concentration killing 50% of cells) (MDA-MB-468; read-out: pLC50 (converted)) of over 100 µM and a TGI (MDA-MB-468; read-out: pTGI) of under 0.01 µM. For the same molecule, the IC50 (COLO 205 [3]) was 0.007 µM, the growth at 1 µM (SN12C) was 36% and the growth at 10 µM (HCC 2998) was 5%. For the same molecule, the growth at 0.1 µM (786-0) was 17%, the growth at 1 µM (K562) was 18% and the growth at 1 µM (SW-620 [4]) was 14%. For the same molecule, the growth at 10 µM (SNB-19) was 24%, the growth at 10 µM (SW-620 [5]) was 14% and the IC50 (Tubulin) was 3.4 µM. It also gave a growth at 1 µM (EKVX) of 52%, a growth at 0.01 µM (NCI-H322M) of 47% and a growth at 10 µM (ACHN [6]) of 15%. The GI50 (UACC-62; read-out: GI50) was under 0.01 µM, the CC50 (UACC-62; [7]) was 50 µM and the TGI (UACC-62; read-out: TGI) was 13 µM. The GI50 (UACC-62; read-out: pGI50 (converted)) was under 0.01 µM, the CC50 (UACC-62; [8]) was 50.1 µM and the TGI (UACC-62; read-out: pTGI (converted)) was 12.9 µM. The growth at 100 µM (LOX IMVI) was -91%.
